Among the test systems are A549 NSCLC; NCI-H460 lung; NCI-H23 lung; HCC-2998 colon; NCI-H522 lung; SK-MEL-5 melanoma; HOP-92 NSCLC; IGROV1 ovarian; MDA-MB-231 breast.
Holding throughout (test): NCI tumour cell line growth inhibition, 48 h

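Values below derive from 48-hour exposures of cells grown in 96-well plates, with endpoints linearly interpolated between the two concentrations bracketing the appropriate inhibition level. GI50: concentration for 50% inhibition of growth. TGI: total growth inhibition.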

For the molecule `CCOC(=O)C1(Br)C(c2ccccc2)NC(=O)N(C2OC(COC(=O)c3ccccc3)C(OC(=O)c3ccccc3)C2OC(=O)c2ccccc2)C1(C)Br` (centres undefined), the TGI was more than 100 µM in the assay on A549 NSCLC; more than 100 µM with NCI-H460 lung; more than 100 µM in the assay on NCI-H23 lung; more than 100 µM with HCC-2998 colon; 20.3 µM in the assay on NCI-H522 lung; 31.3 µM in the assay on SK-MEL-5 melanoma. Besides, the TGI in the assay on HOP-92 NSCLC is 69.9 µM; in the assay on IGROV1 ovarian, more than 100 µM.
As to `NC1=NN(c2ccccc2)C(=O)C1/C(=N\NC(=O)c1cc2ccccc2cc1O)C(=O)Nc1nc([N+](=O)[O-])cs1` (centres undefined), the TGI in the assay with A549 NSCLC was more than 100 µM; in the assay on NCI-H460 lung it was 46.1 µM; with NCI-H23 lung, 56.3 µM; in the assay on HCC-2998 colon, more than 100 µM; in the assay with NCI-H522 lung it was 37.2 µM; in the assay with SK-MEL-5 melanoma, 48.9 µM. The TGI was determined as 87.5 µM with HOP-92 NSCLC and 94.4 µM in the assay with IGROV1 ovarian.
As to `O=C(O)c1c([N+](=O)[O-])cc(C(F)(F)F)cc1[N+](=O)[O-]`, the TGI in the assay with A549 NSCLC, with NCI-H460 lung, with NCI-H23 lung, in the assay with NCI-H522 lung, in the assay on SK-MEL-5 melanoma and in the assay with HOP-92 NSCLC was more than 100 µM in each case. Further, the TGI in the assay on IGROV1 ovarian is more than 100 µM.
As for `O=C(c1ccco1)c1ccccc1C(=O)c1ccco1`, the TGI with A549 NSCLC, in the assay with NCI-H460 lung, with NCI-H23 lung, with HCC-2998 colon, in the assay with SK-MEL-5 melanoma and in the assay on HOP-92 NSCLC was more than 100 µM each time. The same molecule showed a TGI in the assay with IGROV1 ovarian of more than 100 µM.
Regarding `CN(C)CCNC(=O)c1cccc2ccc(-c3cccnc3)nc12`, the TGI is 32.3 µM in the assay on A549 NSCLC; more than 100 µM in the assay on NCI-H460 lung; 16.1 µM with NCI-H23 lung; 18 µM in the assay on HCC-2998 colon; 12.9 µM with SK-MEL-5 melanoma; 14.4 µM in the assay with HOP-92 NSCLC. The TGI with IGROV1 ovarian was found to be 25.6 µM.
Turning to `COc1cc[c]([Sb]([Br])([CH]=C(C)C)([CH]=C(C)C)[CH]=C(C)C)cc1`, the GI50 in the assay with A549 NSCLC is 11.3 µM; in the assay with NCI-H460 lung, 6.61 µM; with NCI-H23 lung, 4.72 µM; with HCC-2998 colon, 6.53 µM; in the assay with NCI-H522 lung, 2480 nM; in the assay on SK-MEL-5 melanoma, 3.03 µM. The GI50 in the assay with IGROV1 ovarian was 3.06 µM. Also, the TGI in the assay on A549 NSCLC is more than 100 µM; in the assay with NCI-H460 lung, 54.5 µM; in the assay on NCI-H23 lung it was 34.6 µM; in the assay on HCC-2998 colon, more than 100 µM; with NCI-H522 lung, 9.23 µM; in the assay on SK-MEL-5 melanoma, 9.92 µM. The same molecule had a TGI with IGROV1 ovarian of 66.1 µM.
For the molecule `CCCCCCCCCCCCC/C=C1\C[C@H](O)COC1=O`, the TGI was determined as 38.7 µM in the assay with A549 NSCLC; 33.4 µM in the assay with NCI-H460 lung; 36.4 µM in the assay on NCI-H23 lung; 37.2 µM in the assay on HCC-2998 colon; 33.5 µM with NCI-H522 lung; 26.6 µM with SK-MEL-5 melanoma. The TGI with HOP-92 NSCLC was determined as 24.7 µM; with IGROV1 ovarian, 32.3 µM.
Regarding `COc1cc(-c2nc(-c3nnc(-c4ccc(F)c(Cl)c4)o3)c3ccccn23)cc(OC)c1OC`, the GI50 in the assay with NCI-H23 lung is 4 µM; with HCC-2998 colon it was 5.64 µM; with NCI-H522 lung, 1920 nM; in the assay with SK-MEL-5 melanoma, 3.03 µM; with MDA-MB-231 breast it was 2150 nM; in the assay with HOP-92 NSCLC it was 1550 nM. Also, the GI50 with IGROV1 ovarian was 3.61 µM. Also, the TGI with NCI-H23 lung is more than 100 µM; in the assay with HCC-2998 colon it was more than 100 µM; with NCI-H522 lung, 4.66 µM; with SK-MEL-5 melanoma it was more than 100 µM; with MDA-MB-231 breast it was 14.7 µM; in the assay on HOP-92 NSCLC it was 6.26 µM. Besides, in the assay on IGROV1 ovarian, the TGI was more than 100 µM.
With `CC1(C(=O)NCCN(CCNC(=O)C2(C)CC3(C)CC(C)(C2)C(=O)NC3=O)CCNC(=O)C2(C)CC3(C)CC(C)(C2)C(=O)NC3=O)CC2(C)CC(C)(C1)C(=O)NC2=O` (centres undefined), the TGI with A549 NSCLC, in the assay on NCI-H460 lung, with NCI-H23 lung, in the assay with HCC-2998 colon and in the assay with IGROV1 ovarian was more than 100 µM in each case.
For the molecule `COc1ccc2nc3ccccc3c(NCCCCCN(CCCl)CCCl)c2c1`, the TGI with A549 NSCLC was 0.675 µM; with NCI-H460 lung, 0.192 µM; in the assay on NCI-H23 lung, 0.986 µM; with HCC-2998 colon it was 0.23 µM; in the assay with NCI-H522 lung, 0.017 µM; in the assay on SK-MEL-5 melanoma, 0.433 µM. The TGI with HOP-92 NSCLC stood at 0.719 µM.
In the case of `O=C(c1ccccn1)c1nc(-c2ccc(Cl)c(Cl)c2)nc2ccc(Cl)cc12`, the TGI with A549 NSCLC was more than 100 µM; in the assay with NCI-H460 lung, more than 100 µM; in the assay on NCI-H23 lung, 87.5 µM; in the assay with HCC-2998 colon, more than 100 µM; in the assay on SK-MEL-5 melanoma, more than 100 µM; in the assay with IGROV1 ovarian, more than 100 µM.
With `C/C=C/C(=O)[C@@H](O)C(C)C`, the TGI in the assay on A549 NSCLC, in the assay on NCI-H23 lung, in the assay with HCC-2998 colon, in the assay with NCI-H522 lung, with SK-MEL-5 melanoma and with HOP-92 NSCLC was more than 100 µM throughout. For the same molecule, the TGI with IGROV1 ovarian was more than 100 µM.
Take `Clc1ccccc1C1N2CCCCC2[C@@H]2c3[nH]c4ccccc4c3CCN12` (some centres undefined): the TGI is 35.6 µM in the assay on NCI-H460 lung; 45.6 µM in the assay with NCI-H23 lung; 36.9 µM with HCC-2998 colon; more than 100 µM in the assay with HOP-92 NSCLC; more than 100 µM in the assay on IGROV1 ovarian.
On to `N.N.N.N.N.N#N.[Cl-].[Os+7]`, for which the GI50 in the assay on A549 NSCLC was more than 100 µM; in the assay on NCI-H460 lung, more than 100 µM; in the assay on NCI-H23 lung it was more than 100 µM; in the assay on HCC-2998 colon, more than 100 µM; with NCI-H522 lung, more than 100000 nM; in the assay with SK-MEL-5 melanoma, more than 100 µM. For the same molecule, the GI50 in the assay on IGROV1 ovarian was more than 100 µM. Further, the TGI in the assay with A549 NSCLC, in the assay with NCI-H460 lung, in the assay with NCI-H23 lung, with HCC-2998 colon, in the assay on NCI-H522 lung and in the assay with SK-MEL-5 melanoma was more than 100 µM each time. Further, in the assay with IGROV1 ovarian, the TGI was more than 100 µM.
Consider `CCCCNC(=O)OCC(COc1ccccc1OC)OC(=O)NCCCC` (centres undefined), for which the TGI in the assay with A549 NSCLC, in the assay on NCI-H460 lung, with NCI-H23 lung, in the assay on HCC-2998 colon, with NCI-H522 lung and in the assay on SK-MEL-5 melanoma was more than 100 µM in each case. Moreover, in the assay on IGROV1 ovarian, the TGI is more than 100 µM.
Turning to `COc1ccc(OC)c(/C=C/C(=O)C(C)(C)C)c1`, the TGI with A549 NSCLC was 82.1 µM; with NCI-H460 lung it was more than 100 µM; in the assay on NCI-H23 lung, 40.4 µM; in the assay on HCC-2998 colon, 39.7 µM; in the assay with NCI-H522 lung, 30.4 µM; with SK-MEL-5 melanoma it was 29.1 µM. For the same molecule, the TGI with HOP-92 NSCLC stood at 44.1 µM; with IGROV1 ovarian, 42.6 µM.
As to `O=c1c2cc(Br)ccc2nc(-c2ccccc2)n1NCC1(O)OCC(O)C(O)C1O` (centres undefined), the TGI in the assay with A549 NSCLC, with NCI-H460 lung, in the assay with NCI-H23 lung, with NCI-H522 lung and in the assay on SK-MEL-5 melanoma was more than 100 µM throughout.
As for `C=CCC(N[C@@H](CO)c1ccccc1)c1ccccn1` (some centres undefined), the GI50 with A549 NSCLC is more than 100 µM; in the assay on NCI-H23 lung it was 60.2 µM; in the assay with HCC-2998 colon, more than 100 µM; in the assay on NCI-H522 lung it was 25800 nM; with SK-MEL-5 melanoma it was 56.9 µM; in the assay with MDA-MB-231 breast, more than 100000 nM. Also, the GI50 with IGROV1 ovarian is more than 100 µM. The TGI in the assay on A549 NSCLC, in the assay on NCI-H23 lung, with HCC-2998 colon, with NCI-H522 lung, in the assay with SK-MEL-5 melanoma and in the assay with MDA-MB-231 breast was more than 100 µM in each case. In the assay on IGROV1 ovarian, the TGI was more than 100 µM.
Turning to `CSc1c(S(C)=O)[nH]c2cc(Br)cc(Br)c12` (centres undefined), the TGI with A549 NSCLC stood at 78.9 µM; with NCI-H460 lung, 35.1 µM; in the assay on NCI-H23 lung it was 50.4 µM; with HCC-2998 colon, 34.7 µM; in the assay with NCI-H522 lung, 55.5 µM; in the assay with SK-MEL-5 melanoma, 38.1 µM. Besides, the results for the TGI with HOP-92 NSCLC and in the assay on IGROV1 ovarian were 32.1 µM and more than 100 µM, respectively.
For `Cc1cc2c(=O)cc(-c3ccc(C(F)(F)F)cc3)oc2c(C(=O)O)c1C`, the TGI in the assay with A549 NSCLC, in the assay on NCI-H460 lung, in the assay with NCI-H23 lung, in the assay on NCI-H522 lung, with SK-MEL-5 melanoma and in the assay with IGROV1 ovarian was more than 100 µM each time.
As for `CC(C)[C@H]1CO[C@@H]2O[C@H](C)CC(=O)N21`, the TGI in the assay on A549 NSCLC, with NCI-H460 lung, in the assay with NCI-H23 lung, with NCI-H522 lung, in the assay with SK-MEL-5 melanoma and in the assay on HOP-92 NSCLC was more than 100 µM throughout. In addition, the TGI with IGROV1 ovarian was more than 100 µM.
Take `C=CC1(c2ccccc2Cl)N/C(=C/OCC)CO1` (centres undefined): the TGI with A549 NSCLC, in the assay with NCI-H460 lung, in the assay on NCI-H23 lung, with HCC-2998 colon, in the assay on NCI-H522 lung and in the assay on SK-MEL-5 melanoma was more than 100 µM each time. For the same molecule, the TGI with HOP-92 NSCLC and in the assay with IGROV1 ovarian was more than 100 µM in each case.
Regarding `NC(=S)N/N=C1\C(=O)N(CCc2ccccc2)C(=O)C1C(=O)NCCc1ccccc1` (centres undefined), the TGI with NCI-H460 lung, in the assay on NCI-H23 lung, in the assay on HCC-2998 colon, with NCI-H522 lung, in the assay on SK-MEL-5 melanoma and in the assay on HOP-92 NSCLC was more than 100 µM each time. Moreover, in the assay with IGROV1 ovarian, the TGI was more than 100 µM.
`Cc1ccc(/C=N/NS(=O)(=O)c2ccccc2)cc1`: the TGI with A549 NSCLC, in the assay on NCI-H460 lung, in the assay on NCI-H23 lung, in the assay on HCC-2998 colon, in the assay on SK-MEL-5 melanoma and with HOP-92 NSCLC was more than 100 µM each time. In the assay on IGROV1 ovarian, this molecule returned a TGI of more than 100 µM.

Values taken from PubChem BioAssay (NCI).
